The subject of one data set is Bcr-AblT315I. Description: Western analyses of Bcr-Abl levels, BaF3/Bcr-AblT315I cells. It counts as cell-based, mouse.
For the next data set, the system named is LAMA-84 cells. Description: Apoptosis assessment by annexin V staining, LAMA-84 cells. Particulars: for apoptosis of LAMA-84 cells: agent alone. It counts as cell-based, human. Here is the method:
(§1) Cell lines and cell culture: Bcr-Abl-expressing, CML LAMA-84 and K562 cells are obtained from American Tissue Culture Collection (Manassas, Va.) and maintained in culture in RPMI medium containing 10% fetal bovine serum and passaged twice a week. Mouse pro-B BaF3 cells are cultured in complete RPMI-1640 media supplemented with 10% WEHI medium as the source of IL-3. For the studies described herein, logarithmically growing cells are exposed to the designated concentrations of Compound (II) and/or Compound (V). Following these treatments, cells or cell pellets are washed free of the drug(s) prior to the performance of the studies. Apoptosis assessment by annexin V staining: Untreated and drug-treated cells are stained with annexin V and PI, and the percentage of apoptotic cells is determined by flow cytometry. Analysis of synergism between Compound (II) and Compound (V) in inducing apoptosis of K562 and LAMA-84 cells is performed by Median Dose-Effect analysis of Chou and Talalay using the commercially-available software (Calcusyn; Biosoft, Ferguson, Mo.).

The next data set has as its system BaF3/Bcr-Abl cells. Description: Apoptosis of BaF3 cells expressing unmutated Bcr-Abl. Particulars: agent alone. The class given is cell-based, mouse. The text has this:
(§2) Cell lines and cell culture: Bcr-Abl-expressing, CML LAMA-84 and K562 cells are obtained from American Tissue Culture Collection (Manassas, Va.) and maintained in culture in RPMI medium containing 10% fetal bovine serum and passaged twice a week. […] Following these treatments, cells or cell pellets are washed free of the drug(s) prior to the performance of the studies.
(§3) Site-directed mutagenesis and nucleofection: Three p210 Bcr-Abl constructs are used in the current studies. The p210 Bcr-Abl WT and p210 Bcr-Abl (T315I) constructs are generated. […] For nucleofection of the p210 Bcr-Abl constructs into BaF3 cells, 5 million BaF3 cells in 100 μL Nucleofector solution V (Amaxa, Gaithersburg, Md.) are mixed with 5 μg p210 Bcr-Abl WT, p210 Bcr-Abl (T315I), or p210 Bcr-Abl (E255K) in a cuvette and nucleofected using program G-16. […] Stably expressing cells are then further selected by removal of IL-3. After confirmation of Bcr-Abl expression by immunoblot analysis, cells are used for the studies described herein.
(§4) Apoptosis assessment by annexin V staining: Untreated and drug-treated cells are stained with annexin V and PI, and the percentage of apoptotic cells is determined by flow cytometry.

The subject of a further data set is K562 cells. Description: Apoptosis assessment by annexin V staining, K562 cells. It counts as cell-based, human. As to conditions: for apoptosis of K562 cells: agent alone. Here is the method: as §1
The test system of a further data set is Bcr-AblE255K. As to the kind of experiment: Western analyses of Bcr-Abl levels, BaF3/Bcr-AblE255K cells. The class given is cell-based, mouse.
For a further data set, the system named is BaF3/Bcr-AblT315I cells. As to the kind of experiment: Apoptosis of BaF3 cells expressing Bcr-AblT315I. The class given is cell-based, mouse.
The subject of data set [1] is Bcr-Abl. Description: Western analyses of Bcr-Abl levels, BaF3/Bcr-Abl cells. It counts as cell-based, mouse.
In data set [2] the test system is Bcr-Abl. Description: Western/immunoblot analyses of Bcr-Abl and downstream signaling proteins, LAMA-84 cells. It counts as cell-based, human. As to conditions: agent alone. How it is done: as §2
(§5) Western analyses of proteins: Western analyses are performed using specific antisera or monoclonal antibodies according to previously reported protocols, and the horizontal scanning densitometry is performed on Western blots.
Immunoprecipitation of Bcr-Abl and immunoblot analyses: Following the designated drug treatments, cells are lysed in lysis buffer (20 mM Tris [pH 8], […] sodium chloride, 1% NP40, 0.1 M sodium fluoride, 1 mM PMSF, 1 mM sodium orthovanadate, 2.5 μg/mL leupeptin, 5 μg/mL aprotinin) for 30 minutes on ice, and the nuclear and cellular debris is cleared by centrifugation. Cell lysates (200 μg) are incubated with the Abl-specific monoclonal antibody for 1 hour at 4° C. To this, washed Protein G agarose beads are added and incubated overnight at 4° C. The immunoprecipitates are washed 3 times in the lysis buffer, and proteins are eluted with the SDS sample loading buffer prior to the immunoblot analyses with specific antibodies against anti-Abl or antiphosphotyrosine antibody.
In general terms: A western blot detects proteins with antibodies after separation by electrophoresis.

Another data set has as its system NBMCs. As to the kind of experiment: Loss of survival of NBMCs. The class given is cell-based. Particulars: for loss of survival of NBMCs: 48 hours, mean of 2 samples. From the text: Primary CML-BC cells and NBMCs: Leukemia cells from the peripheral blood and/or bone marrow of 10 patients who had met the clinical criteria of imatinib-resistant Ph chromosome-positive CML-BC (Imatinib-resistant Philadelphia chromosome-positive chromic myeloid leukaemia-blast crisis) are harvested and purified. Additionally, NBMCs are harvested and purified. Informed consents are signed by all patients to allow use of their cells for these experiments, as part of a clinical protocol approved by the University of South Florida Institutional Review Board (IRB).
Assessment of percentage of non-viable cells: Cells are stained with trypan blue (Sigma, St Louis, Mo.).

Another data set relates to BaF3/Bcr-AblE255K cells. Description: Apoptosis of BaF3 cells expressing Bcr-AblE255K. It counts as cell-based, mouse.
From the text: as §2, §3, §4

In data set [3] the test system is primary, imatinib-resistant CML cells. Description: Loss of viability / apoptosis of primary imatinib-resistant CML-BC cells. Particulars: for sensitivity of sample 7: Compound (II) at lower concentrations; for apoptosis of cells: sample no. 9 (Bcr-AblT315I). It counts as cell-based, human. How it is done:
Primary CML-BC cells and NBMCs: […] Additionally, NBMCs are harvested and purified. Informed consents are signed by all patients to allow use of their cells for these experiments, as part of a clinical protocol approved by the University of South Florida Institutional Review Board (IRB). Sequencing of Bcr-Abl in CML-BC cells: […] Total RNA (5 μg) is reverse transcribed with a first-strand cDNA synthesis kit (Invitrogen). Reverse transcribed cDNAs are used in polymerase chain reaction (PCR) amplifications to amplify a fragment of Bcr-Abl that included the Bcr junction region and the c-Abl kinase region. The amplified sequences are agarose gel-purified and cloned into pCR4-TOPO plasmid. The resulting plasmids are transformed into Escherichia coli Mach1 cells (Invitrogen) overnight at 37° C. Ten colonies for each sample are checked by colony PCR and subcultured for plasmid isolation. Isolated plasmids are sequence verified with T3 and T7 primers for c-Abl kinase domain mutations. Assessment of percentage of non-viable cells: Cells are stained with trypan blue (Sigma, St Louis, Mo.). […] Apoptosis assessment by annexin V staining: Untreated and drug-treated cells are stained with annexin V and PI, and the percentage of apoptotic cells is determined by flow cytometry. Analysis of synergism between Compound (II) and Compound (V) in inducing apoptosis of K562 and LAMA-84 cells is performed by Median Dose-Effect analysis of Chou and Talalay using the commercially-available software (Calcusyn; Biosoft, Ferguson, Mo.).

Data set [4] has as its system Bcr-Abl. Description: Western blot analyses of total cell lysates of primary CML cells. It counts as cell-based, human. Particulars: sample 9; 1000 nM alone. How it is done: Additionally, NBMCs are harvested and purified. Informed consents are signed by all patients to allow use of their cells for these experiments, as part of a clinical protocol approved by the University of South Florida Institutional Review Board (IRB).
as §5

Where [5] appears, read: any of the levels tested, alone.

With `Cc1cn(-c2cc(NC(=O)c3ccc(C)c(Nc4nccc(-c5cccnc5)n4)c3)cc(C(F)(F)F)c2)cn1` [Compound (II), 4-methyl-3-[[4-(3-pyridinyl)-2-pyrimidinyl]amino]-N-[5-(4-methyl-1H-imidazol-1-yl)-3-(trifluoromethyl)phenyl]benzamide], the “levels of p-CrkL” value is reported as “did not affect” with Bcr-AblT315I (agent alone), “did not affect” with Bcr-AblE255K (agent alone), “did not affect” in the data set on Bcr-Abl [1] (agent alone) and “inhibited” in the data set with Bcr-Abl [2]. Besides, the “levels of Bcr-Abl” value in the data set on Bcr-AblT315I (setting [5]) is reported as “did not lower”; in the data set on Bcr-AblE255K (setting [5]), “did not lower”; with Bcr-Abl [1] (setting [5]) it was “did not lower”; with Bcr-Abl [2], “without affecting”. The “potency in inducing apoptosis relative to imatinib” value with LAMA-84 cells (LAMA-84 cells) and in the data set on K562 cells (K562 cells) was “approximately 10 fold” throughout. Also, in the data set on LAMA-84 cells, the “apoptosis of LAMA-84 cells” value was “dose-dependent manner”. For the same compound, in the data set with BaF3/Bcr-Abl cells, the “apoptosis of BaF3/Bcr-Abl cells” value was “dose-dependent manner”. In addition, the “apoptosis of K562 cells” value in the data set with K562 cells is “dose-dependent manner”. The “apoptosis of BaF3/Bcr-AblT315I cells” value in the data set with BaF3/Bcr-AblT315I cells (levels as high as 2,000 nM) is “resistant”. Moreover, the “expressions of c-Myc and Bcl-xL” value with Bcr-Abl [2] is “lowered”. The “levels of p-AKT” value in the data set on Bcr-Abl [2] was “inhibited”. Further, the “levels of p-STAT5” value in the data set on Bcr-Abl [2] was “attenuated”. For the same compound, the “levels of tyrosine phosphorylated Bcr-Abl” value with Bcr-Abl [2] is reported as “inhibited”. In addition, in the data set with Bcr-Abl [2], the p27 levels entry is “induction”. Further, in the data set on NBMCs (up to 1.0 μM), the “effect against NBMCs” value is listed as “no effect”. In addition, the “apoptosis of BaF3/Bcr-AblE255K cells” value in the data set on BaF3/Bcr-AblE255K cells (100 nM) is “ineffective”; in the data set with BaF3/Bcr-AblE255K cells (200 nM), 26.0%; in the data set on BaF3/Bcr-AblE255K cells (500 nM), 43.0%. For the same compound, the “sensitivity of sample 7” value in [3] is “relatively resistant”. In [3] (2.0 μM), the apoptosis of cells entry was “ineffective”. For the same compound, the “loss of cell viability” value is on record as “dose dependent” in data set [3] (samples 1 to 7, agent alone); “did not augment” in data set [3] (samples 8, 9, and 10 with Bcr-AblT315I mutation, Compound (II) alone). The “levels of Bcr-Abl, p-CrkL, and p-STAT5” value in the data set with Bcr-Abl [4] is recorded as “little effect”.

As to `Cc1[nH]c2ccccc2c1CCNCc1ccc(/C=C/C(=O)NO)cc1` [Compound (V), N-hydroxy-3-[4-[[[2-(2-methyl-1H-indol-3-yl)-ethyl]-amino]methyl]phenyl]-2E-2-propenamide], the Bcr-Abl levels result in the data set on Bcr-AblT315I (50 nM, 24 hours) is on record as “lowered”; in the data set with Bcr-AblE255K (50 nM, 24 hours), “lowered”; in the data set with Bcr-Abl [1] (50 nM, 24 hours), “lowered”. For the same compound, the “apoptosis of LAMA-84 cells” value in the data set with LAMA-84 cells is listed as “dose-dependent manner”. The “apoptosis of K562 cells” value in the data set with K562 cells is on record as “dose-dependent manner”. For the same compound, the “apoptosis of BaF3/Bcr-Abl T315I cells” value with BaF3/Bcr-AblT315I cells (50 nM, 48 hours) is given as “approximately 30%”; with BaF3/Bcr-AblT315I cells (levels lower than 50 nM), “less effective”. Besides, in the data set on BaF3/Bcr-AblT315I cells (agent alone), the “sensitivity of BaF3/Bcr-AblT315I cells to induced apoptosis” value is “as sensitive as BaF3/Bcr-Abl cells”. The “loss of survival of NBMCs” value with NBMCs (20 nM) worked out at 13.1%; in the data set with NBMCs (50 nM), 15.9%. The “sensitivity of sample 7” value in [3] was “sensitive”. The apoptosis of cells in [3] (50 nM alone) is listed as 42.0%. Further, the “loss of cell viability” value in [3] (samples 1 to 7, agent alone) is listed as “dose dependent”. Besides, the cell viability entry in data set [3] (samples 8, 9, and 10 with Bcr-AblT315I mutation, alone, 48 hours, dose-dependent) was “markedly inhibited”.
